According to patent EP4806912A1, “DUAL AGONIST COMPOUND” (Chengdu Aoda Biotechnology Co., Ltd, priority 2023, dated 2025):

Legend:
[1] = Preliminary pharmacokinetic evaluation in cynomolgus monkeys (plasma, LC-MS); assay type: in vivo; settings: for half-life: cynomolgus monkey, male cynomolgus monkeys, subcutaneously (SC), 0.2 mg/kg, plasma; for half-lives: cynomolgus monkeys, administered subcutaneously
Procedure: Among the above compounds, the principle of modification for long-acting was essentially the same.
The test animals were male cynomolgus monkeys. Two animals were used for each compound. The compounds were administered subcutaneously at a dose of 0.2 mg/kg. Blood samples were collected via intravenous sampling prior to administration (0 h) and at 1 h, 2 h, 3 h, 4 h, 8 h, 12 h, 18 h, 24 h, 48 h, 96 h, 144 h, and 168 h after administration. Plasma samples were obtained by centrifugation. The plasma concentrations of the compounds were respectively determined by liquid chromatography - mass spectrometry (LC-MS).

[2] = molecular target: T1, GLP-1R (Homo sapiens, UniProt P43220); experiment: GLP-1 activity test (cAMP, chemiluminescence, CHO-K1 cell line stably expressing GLP-1R); assay type: cell-based; settings: relative luminescence units, read-out: GLP-1 activity [EC50(pmol)]
T1 construct: expressed in transfected cells; host or cells: CHO-K1
Procedure: (§1) Upon stimulation by a specific agonist, GLP-1R activates the intracellular adenylate cyclase signaling pathway, resulting in an increase in cAMP levels and ultimately leading to insulin production and secretion. A cell line stably transfected with GLP-1R was stimulated with test compounds, thereby rapidly increasing intracellular cAMP levels. The relative luminescence units (RLU) of cells stimulated at various concentrations were measured by a chemiluminescence method, and the EC50 value of the agonist was calculated accordingly. This activity test method is currently a commonly used method for evaluating GLP-1 receptor agonist activity both domestically and internationally.
A CHO-K1 cell line stably expressing GLP-1R was used. The stable cells were stimulated with agonists at different concentrations, and the relative luminescence units after stimulation at each concentration were measured to calculate the EC50 value of the agonist.

[3] = molecular target: T2, GCG-R (Homo sapiens, UniProt P47871); experiment: GCG activity test (cAMP, chemiluminescence, CHO-K1 cell line stably expressing GCG-R); assay type: cell-based; settings: relative luminescence units, read-out: GCG activity [EC50(nmol)]
T2 construct: expressed in transfected cells; host or cells: CHO-K1
Procedure: as §1, with “agonist, GCG-R” for “agonist, GLP-1R”, “with GCG-R” for “with GLP-1R”, “activity assay” for “activity test”, “evaluating GCG” for “evaluating GLP-1”
A CHO-K1 cell line stably expressing GCG-R was used. The stable cells were stimulated with agonists at different concentrations, and the relative luminescence units after stimulation at each concentration were measured to calculate the EC50 value of the agonist.

T2 sequence (P47871 26-477, species assumed): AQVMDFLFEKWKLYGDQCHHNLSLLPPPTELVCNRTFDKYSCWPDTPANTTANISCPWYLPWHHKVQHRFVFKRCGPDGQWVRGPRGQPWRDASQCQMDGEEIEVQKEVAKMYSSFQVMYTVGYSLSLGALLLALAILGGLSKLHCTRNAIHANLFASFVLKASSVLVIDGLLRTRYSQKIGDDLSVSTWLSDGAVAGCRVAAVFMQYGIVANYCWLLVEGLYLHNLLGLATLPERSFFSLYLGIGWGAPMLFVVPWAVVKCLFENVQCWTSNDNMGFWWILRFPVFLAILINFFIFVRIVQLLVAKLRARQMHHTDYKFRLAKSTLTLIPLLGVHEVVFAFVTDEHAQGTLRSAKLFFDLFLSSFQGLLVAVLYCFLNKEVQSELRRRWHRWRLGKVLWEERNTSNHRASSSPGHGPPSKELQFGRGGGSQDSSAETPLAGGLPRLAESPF
T1 sequence (P43220 24-463, species assumed): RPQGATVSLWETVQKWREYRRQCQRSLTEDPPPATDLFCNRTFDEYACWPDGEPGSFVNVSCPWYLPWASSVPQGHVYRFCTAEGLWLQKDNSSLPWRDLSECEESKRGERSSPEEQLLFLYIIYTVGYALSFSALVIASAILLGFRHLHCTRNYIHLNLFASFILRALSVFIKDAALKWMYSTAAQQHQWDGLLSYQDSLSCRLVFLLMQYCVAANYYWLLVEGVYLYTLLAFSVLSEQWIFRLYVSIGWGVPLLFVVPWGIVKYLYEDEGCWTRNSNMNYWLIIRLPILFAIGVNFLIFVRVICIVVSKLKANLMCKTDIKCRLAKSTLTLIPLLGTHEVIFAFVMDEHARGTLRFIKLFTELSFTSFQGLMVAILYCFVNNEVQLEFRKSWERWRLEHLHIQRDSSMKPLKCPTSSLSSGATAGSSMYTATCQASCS

| Structure (SMILES) | half-life [1] [h] | half-lives [1] | EC50 [2] [nM] | EC50 [3] [nM] |
| --- | --- | --- | --- | --- |
| CC(C)C[C@H](NC(=O)[C@H](CC(C)C)NC(=O)[C@H](Cc1c[nH]c2ccccc12)NC(=O)[C@H](CCC(=O)O)NC(=O)[C@@H](NC(=O)[C@H](Cc1ccccc1)NC(=O)[C@H](CCC(=O)O)NC(=O)[C@H](CCCCNC(=O)COCCOCCOCCOCCOCCNC(=O)CCC[C@H](NC(=O)CCCCCCCCCCCCCCCCCCC(=O)O)C(=O)O)NC(=O)[C@H](C)NC(=O)[C@H](CCCCN)NC(=O)[C@H](CCCCN)NC(=O)[C@H](CCC(=O)O)NC(=O)[C@H](CC(=O)O)NC(=O)[C@H](CC(C)C)NC(=O)[C@H](Cc1ccc(O)cc1)NC(=O)[C@H](CCCCN)NC(=O)[C@H](CO)NC(=O)[C@H](Cc1ccc(O)cc1)NC(=O)[C@H](CC(=O)O)NC(=O)[C@H](CO)NC(=O)[C@@H](NC(=O)C(C)(Cc1ccccc1F)NC(=O)[C@@H](NC(=O)CNC(=O)[C@H](CCC(N)=O)NC(=O)C(C)(C)NC(=O)[C@@H](N)Cc1c[nH]cn1)[C@@H](C)O)[C@@H](C)O)C(C)C)C(=O)N[C@@H](CCC(=O)O)C(=O)NCCCCC(=O)N1CCC[C@H]1C(=O)N[C@@H](CO)C(=O)N[C@@H](CO)C(=O)NCC(=O)N[C@@H](C)C(=O)N1CCC[C@H]1C(=O)N1CCC[C@H]1C(=O)N1CCC[C@H]1C(=O)N[C@@H](CO)C(N)=O (some centres unmarked) [Compound 10] | 136 | greater than 100 hours | 0.0755 | 1.2 |
| CC(C)C[C@H](NC(=O)[C@H](CC(C)C)NC(=O)[C@H](Cc1c[nH]c2ccccc12)NC(=O)[C@H](CCC(=O)O)NC(=O)[C@@H](NC(=O)[C@H](Cc1ccccc1)NC(=O)[C@H](CCC(=O)O)NC(=O)[C@H](CCCCNC(=O)COCCOCCOCCOCCOCCNC(=O)CCC[C@H](NC(=O)CCCCCCCCCCCCCCCCCCC(=O)O)C(=O)O)NC(=O)[C@H](C)NC(=O)[C@H](CCCCN)NC(=O)[C@H](CCCCN)NC(=O)[C@H](CCC(=O)O)NC(=O)[C@H](CC(=O)O)NC(=O)[C@H](CC(C)C)NC(=O)[C@H](Cc1ccc(O)cc1)NC(=O)[C@H](CCCCN)NC(=O)[C@H](CO)NC(=O)[C@H](Cc1ccc(O)cc1)NC(=O)[C@H](CC(=O)O)NC(=O)[C@H](CO)NC(=O)[C@@H](NC(=O)C(C)(Cc1ccccc1)NC(=O)[C@@H](NC(=O)CNC(=O)[C@H](CCC(N)=O)NC(=O)C(C)(C)NC(=O)[C@@H](N)Cc1c[nH]cn1)[C@@H](C)O)[C@@H](C)O)C(C)C)C(=O)N[C@@H](CCC(=O)O)C(=O)NCCCCC(=O)N1CCC[C@H]1C(=O)N[C@@H](CO)C(=O)N[C@@H](CO)C(=O)NCC(=O)N[C@@H](C)C(=O)N1CCC[C@H]1C(=O)N1CCC[C@H]1C(=O)N1CCC[C@H]1C(=O)N[C@@H](CO)C(N)=O (some centres unmarked) [Compound 6] | 125 | greater than 100 hours | 0.0809 | 2.1 |
